We go through 41 molecules from patent US20230391739A1, “ARYL DERIVATIVES FOR TREATING TRPM3 MEDIATED DISORDERS” (Katholieke Universiteit Leuven, priority 2020, published 2023).

Where only a bound is given, the exact number is not on record here.

This assay concerns the target T1, mouse TRPM3α2 (mTRPM3) ion channel (Mus musculus, UniProt J9SQF3).
T1 construct: expressed in transfected cells; host or cells: flip-in HEK293
Briefly: TRPM3 ion channel driven Ca2+ uptake, Fluo-4 AM assay, PS-stimulated (mTRPM3). The conditions noted are these: TRPM3 overexpressing flip-in HEK293 cells stimulated with Pregnenolone sulfate (PS) 50 μM, activity ranges A, B, C. It counts as cell-based. The method, boiled down:
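Ca²⁺ influx through mouse TRPM3α2, opened by 50 μM pregnenolone sulfate, was tracked with Fluo-4 AM in stably transfected HEK293 cells read directly after seeding onto pre-dispensed compound.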

The IC50 is the point on the concentration scale where inhibition reaches its midpoint. Higher therefore signals lower potency.

T1 sequence (J9SQF3 1-1709 isoform J9SQF3-12): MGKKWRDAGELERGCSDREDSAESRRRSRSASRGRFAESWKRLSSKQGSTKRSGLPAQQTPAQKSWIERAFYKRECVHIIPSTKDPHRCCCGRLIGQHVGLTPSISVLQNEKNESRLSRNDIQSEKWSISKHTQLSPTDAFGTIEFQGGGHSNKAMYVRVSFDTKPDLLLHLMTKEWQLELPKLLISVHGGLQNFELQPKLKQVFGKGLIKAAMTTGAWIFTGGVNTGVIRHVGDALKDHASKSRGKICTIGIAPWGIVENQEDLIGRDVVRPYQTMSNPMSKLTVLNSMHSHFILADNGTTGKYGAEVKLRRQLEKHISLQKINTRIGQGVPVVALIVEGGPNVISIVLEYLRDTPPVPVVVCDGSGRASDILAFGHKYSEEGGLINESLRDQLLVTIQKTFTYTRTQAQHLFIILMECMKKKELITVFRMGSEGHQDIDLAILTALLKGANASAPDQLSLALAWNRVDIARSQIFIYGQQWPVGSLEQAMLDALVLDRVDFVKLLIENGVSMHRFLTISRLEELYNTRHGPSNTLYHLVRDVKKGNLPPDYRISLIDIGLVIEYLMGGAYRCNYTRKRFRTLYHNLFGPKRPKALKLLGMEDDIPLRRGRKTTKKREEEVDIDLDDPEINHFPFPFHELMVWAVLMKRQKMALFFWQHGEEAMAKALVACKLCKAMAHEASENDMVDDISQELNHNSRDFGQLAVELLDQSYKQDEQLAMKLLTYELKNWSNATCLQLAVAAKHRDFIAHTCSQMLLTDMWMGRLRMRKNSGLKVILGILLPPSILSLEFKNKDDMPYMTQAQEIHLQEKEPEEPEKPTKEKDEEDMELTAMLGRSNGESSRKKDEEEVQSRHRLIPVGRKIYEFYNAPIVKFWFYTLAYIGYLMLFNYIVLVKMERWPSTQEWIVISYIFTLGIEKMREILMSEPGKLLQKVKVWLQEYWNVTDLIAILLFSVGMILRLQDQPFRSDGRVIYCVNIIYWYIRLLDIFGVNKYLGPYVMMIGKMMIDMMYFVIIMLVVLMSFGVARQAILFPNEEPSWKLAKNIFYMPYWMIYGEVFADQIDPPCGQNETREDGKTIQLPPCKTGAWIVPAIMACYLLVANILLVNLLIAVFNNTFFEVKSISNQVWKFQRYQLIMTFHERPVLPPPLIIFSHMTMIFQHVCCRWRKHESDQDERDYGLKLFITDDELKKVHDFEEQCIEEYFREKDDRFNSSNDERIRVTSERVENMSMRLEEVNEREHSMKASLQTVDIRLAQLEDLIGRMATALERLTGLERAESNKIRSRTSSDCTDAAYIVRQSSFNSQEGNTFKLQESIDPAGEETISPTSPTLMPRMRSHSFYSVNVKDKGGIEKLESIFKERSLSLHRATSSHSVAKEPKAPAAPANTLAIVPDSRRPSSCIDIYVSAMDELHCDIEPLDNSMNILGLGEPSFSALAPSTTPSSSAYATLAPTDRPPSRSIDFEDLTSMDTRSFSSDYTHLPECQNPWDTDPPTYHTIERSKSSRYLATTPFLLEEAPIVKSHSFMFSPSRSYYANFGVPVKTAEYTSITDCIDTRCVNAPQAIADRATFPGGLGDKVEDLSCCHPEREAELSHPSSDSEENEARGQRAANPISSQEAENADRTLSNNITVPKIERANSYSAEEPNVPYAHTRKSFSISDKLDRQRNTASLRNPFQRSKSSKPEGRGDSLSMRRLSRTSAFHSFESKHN

For the molecule `Cc1oc2ccc(OCc3ccccc3C#N)cc2c1C(=O)O` [Cpd 010, 5-((2-cyanobenzyl)oxy)-2-methylbenzofuran-3-carboxylic acid], the half-inhibitory concentration (IC50) lay in the range of 1000 to 20000 nM.
In turn, `Cc1oc2ccc(OCc3ccc(C#N)cc3)cc2c1C(=O)N[C@H]1CCNC1` [Cpd 103, (S)-5-((4-cyanobenzyl)oxy)-2-methyl-N-(pyrrolidin-3-yl)benzofuran-3-carboxamide] registered an IC50 of 1000 to 20000 nM.
For `Cc1oc2ccc(OCc3ccccc3)cc2c1C(=O)NCC1CCNC1` (centres unmarked) [Cpd 077, 5-(benzyloxy)-2-methyl-N-(pyrrolidin-3-ylmethyl)benzofuran-3-carboxamide], the IC50 lay in the range of 1000 to 20000 nM.
The molecule `Cc1oc2ccc(OCc3ccccc3N3CCN(C)CC3)cc2c1C(=O)NC1CCNC1=O` (centres unmarked) [Cpd 245, 2-methyl-5-((2-(4-methylpiperazin-1-yl)benzyl)oxy)-N-(2-oxopyrrolidin-3-yl)benzofuran-3-carboxamide] registered a half-inhibitory concentration (IC50) greater than 20000 nM.
The result for `Cc1cc2oc(C)c(C(=O)NC3CNCC3(F)F)c2cc1OCc1ccccc1` (single isomer, unassigned) [Cpd 303-En 2, 5-(benzyloxy)-N-(4,4-difluoropyrrolidin-3-yl)-2,6-dimethylbenzofuran-3-carboxamide] reads greater than 20000 nM.
The value for `Cc1oc2ccc(OCc3ccccc3)cc2c1C(=O)N1CCCC(N(C)C)C1` (centres unmarked) [Cpd 150, (5-(benzyloxy)-2-methylbenzofuran-3-yl)(3-(dimethylamino)piperidin-1-yl)methanone] was greater than 20000 nM; that for `Cc1oc2ccc(OC(CO)c3ccccc3F)cc2c1C(=O)N[C@@H](CO)C(N)=O` (single isomer, unassigned) [Cpd 335-Dia 1] was less than 1000 nM.
Molecule `Cc1oc2ccc(OCc3ccccc3)cc2c1C(=O)NC1(CO)CCOCC1` [Cpd 167, 5-(benzyloxy)-N-(4-(hydroxymethyl)tetrahydro-2H-pyran-4-yl)-2-methylbenzofuran-3-carboxamide] showed a 50% inhibitory concentration (IC50) of less than 1000 nM.
Take `Cc1oc2ccc(OCc3ccccc3F)cc2c1C(=O)NC1(CO)COC1` [Cpd 310, 5-((2-fluorobenzyl)oxy)-N-(3-(hydroxymethyl)oxetan-3-yl)-2-methylbenzofuran-3-carboxamide]: the 50% inhibitory concentration (IC50) was less than 1000 nM.
Molecule `Cc1nc(C)n(CCNC(=O)c2c(C)oc3ccc(OCc4ccccc4)cc23)n1` [Cpd 179, 5-(benzyloxy)-N-(2-(3,5-dimethyl-1H-1,2,4-triazol-1-yl)ethyl)-2-methylbenzofuran-3-carboxamide] came in with a half-maximal inhibitory concentration (IC50) of 1000 to 20000 nM.
The result for `Cc1oc2ccc(OCc3cccc(OC(F)(F)F)c3)cc2c1C(=O)NC1CCN(C)CC1` [Cpd 244, 2-methyl-N-(1-methylpiperidin-4-yl)-5-((3-(trifluoromethoxy)benzyl)oxy)benzofuran-3-carboxamide] reads 1000 to 20000 nM.
In turn, `Cc1oc2ccc(OCc3ccccc3)cc2c1C(=O)N[C@H]1C[C@H]2C(=O)NCC(=O)N2C1` [Cpd 222, 5-(benzyloxy)-N-((7S,8aS)-1,4-dioxooctahydropyrrolo[1,2-a]pyrazin-7-yl)-2-methylbenzofuran-3-carboxamide] yielded a 50% inhibitory concentration (IC50) of 1000 to 20000 nM.
`O=C(O)c1c(C2CCCC2)oc2ccc(OCc3ccccc3)cc12` [Cpd 023, 5-(benzyloxy)-2-cyclopentylbenzofuran-3-carboxylic acid] came in with an IC50 greater than 20000 nM.
Molecule `Cc1cc(CNC(=O)c2c(C)oc3ccc(OCc4ccccc4)cc23)no1` [Cpd 105, 5-(benzyloxy)-2-methyl-N-((5-methylisoxazol-3-yl)methyl)benzofuran-3-carboxamide] had an IC50 of less than 1000 nM.
Take `Cc1oc2ccc(OCc3ccccc3)cc2c1C(=O)N[C@H]1C[C@H]2C(=O)N(C)CC(=O)N2C1` [Cpd 235, 5-(benzyloxy)-2-methyl-N-((7S,8aS)-2-methyl-1,4-dioxooctahydropyrrolo[1,2-a]pyrazin-7-yl)benzofuran-3-carboxamide]: the concentration for half-maximal inhibition (IC50) lay within 1000 to 20000 nM.
As for `COCCCNC(=O)c1c(C)oc2ccc(OCc3ccccc3)cc12` [Cpd 056, 5-(benzyloxy)-N-(3-methoxypropyl)-2-methylbenzofuran-3-carboxamide], the 50% inhibitory concentration (IC50) fell in the range of 1000 to 20000 nM.
`Cc1oc2ccc(OCc3cccc(F)c3)cc2c1C(=O)NS(=O)(=O)C1CC1` [Cpd 176, N-(cyclopropylsulfonyl)-5-((3-fluorobenzyl)oxy)-2-methylbenzofuran-3-carboxamide]: the IC50 was less than 1000 nM.
Molecule `Cc1oc2ccc(OCc3ccccc3F)cc2c1C(=O)NC(C)CO` (single isomer, unassigned) [Cpd 328-En 1] registered an IC50 of less than 1000 nM.
As to `Cc1oc2ccc(OCc3ccccc3)cc2c1C(=O)NCc1cccnc1` [Cpd 100, 5-(benzyloxy)-2-methyl-N-(pyridin-3-ylmethyl)benzofuran-3-carboxamide], the IC50 was in the range of 1000 to 20000 nM.
For the molecule `Cc1oc2ccc(OCc3ccccc3)cc2c1C(=O)NCc1ccnn1C` [Cpd 104, 5-(benzyloxy)-2-methyl-N-((1-methyl-1H-pyrazol-5-yl)methyl)benzofuran-3-carboxamide], the IC50 was less than 1000 nM.
Consider `Cc1oc2ccc(OCc3ccccc3F)cc2c1C(=O)NC1COCC1(F)F` (single isomer, unassigned) [Cpd 331-En 2], for which the half-maximal inhibitory concentration (IC50) is less than 1000 nM.
The molecule `COc1ccccc1COc1ccc2oc(C)c(C(=O)O)c2c1` [Cpd 013, 5-((2-methoxybenzyl)oxy)-2-methylbenzofuran-3-carboxylic acid] yielded an IC50 of 1000 to 20000 nM.
The result for `Cc1oc2ccc(OCc3ccccc3)cc2c1C(=O)NO` [Cpd 036, 5-(benzyloxy)-N-hydroxy-2-methylbenzofuran-3-carboxamide] reads less than 1000 nM; that for `Cc1oc2ccc(OCc3ccccc3)cc2c1C(=O)NC1(CNC(=O)OC(C)(C)C)CCC1` [Cpd 246, tert-butyl ((1-(5-(benzyloxy)-2-methylbenzofuran-3-carboxamido)cyclobutyl)methyl)carbamate], 1000 to 20000 nM; that for `Cc1oc2ccc(OCc3ccccc3)cc2c1C(=O)NC1COC1` [Cpd 043, 5-(benzyloxy)-2-methyl-N-(oxetan-3-yl)benzofuran-3-carboxamide], less than 1000 nM.
The molecule `COCC(Oc1ccc2oc(C)c(C(=O)N[C@@H](CO)C(N)=O)c2c1)c1ccccc1` (single isomer, unassigned) [Cpd 346-En 1] displayed an IC50 of less than 1000 nM.
On to `Cc1oc2ccc(OC(C)c3ccccc3C(F)(F)F)cc2c1C(=O)N[C@H]1CCNC1` (mixture of isomers) [Cpd 220, rac-2-methyl-N—((R)-pyrrolidin-3-yl)-5-(1-(2-(trifluoromethyl)phenyl)ethoxy)benzofuran-3-carboxamide], for which the concentration for half-maximal inhibition (IC50) is less than 1000 nM.
Consider `Cc1oc2ccc(OCc3ccccc3)cc2c1C(=O)N[C@@H]1C[C@H]2CNC[C@H]2C1` [Cpd 140, 5-(benzyloxy)-2-methyl-N-(trans-octahydrocyclopenta[c]pyrrol-5-yl)benzofuran-3-carboxamide], for which the concentration for half-maximal inhibition (IC50) was less than 1000 nM.
The value for `Cc1oc2ccc(OCc3cccc(CN)c3)cc2c1C(=O)NC1CCNC1=O` (centres unmarked) [Cpd 157, 5-((3-(aminomethyl)benzyl)oxy)-2-methyl-N-(2-oxopyrrolidin-3-yl)benzofuran-3-carboxamide] was greater than 20000 nM.
Take `Cc1oc2ccc(OCc3c(F)cccc3Cl)cc2c1C(N)=O` [Cpd 041, 5-((2-chloro-6-fluorobenzyl)oxy)-2-methylbenzofuran-3-carboxamide]: the IC50 was less than 1000 nM.
`Cc1oc2ccc(OCc3ccc(F)cc3)cc2c1C(=O)NS(=O)(=O)C1CC1` [Cpd 177, N-(cyclopropylsulfonyl)-5-((4-fluorobenzyl)oxy)-2-methylbenzofuran-3-carboxamide] registered a half-inhibitory concentration (IC50) of 1000 to 20000 nM.
The result for `Cc1oc2ccc(OCc3ccccc3)cc2c1C(=O)Nc1cnccn1` [Cpd 061, 5-(benzyloxy)-2-methyl-N-(pyrazin-2-yl)benzofuran-3-carboxamide] reads less than 1000 nM.
On to `CCOC(=O)c1coc2ccc(OCc3ccccc3)cc12` [Cpd 029, ethyl 5-(benzyloxy)benzofuran-3-carboxylate], for which the IC50 is greater than 20000 nM.
The value for `Cc1oc2ccc(OCc3ccccc3)cc2c1C(=O)N[C@@H](CO)C(N)=O` [Cpd 337, (S)—N-(1-amino-3-hydroxy-1-oxopropan-2-yl)-5-(benzyloxy)-2-methylbenzofuran-3-carboxamide] was less than 1000 nM; that for `Cc1oc2ccc(OCc3ccccc3)cc2c1C(=O)N[C@H]1CN[C@H](C(N)=O)C1` [Cpd 158, (2S,4R)-4-(5-(benzyloxy)-2-methylbenzofuran-3-carboxamido)pyrrolidine-2-carboxamide] was less than 1000 nM; that for `Cc1noc(C)c1CCNC(=O)c1c(C)oc2ccc(OCc3ccccc3)cc12` [Cpd 178, 5-(benzyloxy)-N-(2-(3,5-dimethylisoxazol-4-yl)ethyl)-2-methylbenzofuran-3-carboxamide] was 1000 to 20000 nM.
In turn, `Cc1oc2ccc(OCc3ccccc3)cc2c1C(=O)NC1CCCNCC1` (centres unmarked) [Cpd 119, N-(azepan-4-yl)-5-(benzyloxy)-2-methylbenzofuran-3-carboxamide] gave an IC50 of less than 1000 nM.
Turning to `Cc1oc2ccc(OCc3ccccc3)cc2c1C(=O)Nc1ccccc1` [Cpd 058, 5-(benzyloxy)-2-methyl-N-phenylbenzofuran-3-carboxamide], the IC50 is less than 1000 nM.
The value for `Cc1oc2ccc(OCc3ccccc3)cc2c1C(=O)NC1CNCC1F` (racemic) [Cpd 093, rac-5-(benzyloxy)-N-(trans-4-fluoropyrrolidin-3-yl)-2-methylbenzofuran-3-carboxamide] was less than 1000 nM.
Consider `Cc1oc2ccc(COc3ccccc3F)cc2c1C(=O)NC(C)C(N)=O` (single isomer, unassigned) [Cpd 320-En 1], for which the IC50 was less than 1000 nM.
The value for `Cc1oc2ccc(OCc3ccccc3F)cc2c1C(=O)NC1(C(N)=O)CC1` [Cpd 326, N-(1-carbamoylcyclopropyl)-5-((2-fluorobenzyl)oxy)-2-methylbenzofuran-3-carboxamide] was less than 1000 nM.
